Measured values from patent US11691949B2, “Quinoline sulfonamide compounds and their use as antibacterial agents” (OTAGO INNOVATION LIMITED, priority 2017, dated 2023).
Converted amounts (≈) assume the structure as drawn. Where two headings read alike, the source gives them in different places. Each block holds one compound with its values, some of them ahead of it.

Columns and labels:
Format in all cases: cell-based
[1] = tested on: E. coli ATCC 10596; assay: MIC by broth microdilution, E. coli; conditions: Escherichia coli, read-out: E. coli ATCC 10536 MIC
Method: (§1) Antibacterial susceptibility testing was performed in triplicate (biological) by measuring minimum inhibitory concentrations (MICs) by broth microdilution in 96-well flat bottom microtiter plates (ThermoFisher Scientific, New Zealand). S. uberis ATCC 19436, S. aureus ATCC 6538, or E. coli ATCC 10596 cells grown overnight were diluted to an OD600 of approximately 0.025, so that the final concentration of cells in the MIC assay was approximately 5×10^5 cfu/mL in media as follows: S. uberis; Todd Hewitt Broth (THB), S. aureus; Tryptic Soy Broth (TSB) and Cation Adjusted Muller Hinton Broth (CAMHB), and E. coli; Lysogeny Borth (LB) and CAMHB, before being dispensed into microtiter wells. As required additional sterile Zinc Sulphate (Heptahydrate) was supplemented into the media, so the final concentration was 50 μM. Test compounds were added to starting wells and two-fold serial dilutions were undertaken to generate a range of inhibitor concentrations at a final volume of 200 μl. Media and test compound-free (untreated) controls were included in each microtiter plate in triplicate. After 24 h incubation at 37° C. and 200 rpm, the OD600 of wells were read using a Varioskan Flash plate reader (ThermoFisher Scientific, New Zealand). The MIC was reported as the lowest concentration of the test compound for which no growth occurred, as determined by OD600 readings. The minimum bactericidal concentration (MBC) was determined using the Miles-Misra drop-plate method to measure the viability of cells in response to test compound challenge.

[2] = tested on: S. uberis ATCC 19436; assay: MIC by broth microdilution, S. uberis; conditions: Streptococcus uberis, read-out: S. uberis ATCC 19436 MIC
Method: as §1

[3] = tested on: S. aureus ATCC 6538; assay: MIC by broth microdilution, S. aureus; conditions: Staphylococcus aureus, read-out: S. aureus ATCC 6538 MIC
Method: as §1

[4] = ATCC 10536 / ATCC 10596, No Zinc
[5] = ATCC 10536 / ATCC 10596, Zinc (50 μM)

SMILES: CC(C)(C)OC(=O)N1CCCC(C(=O)N/N=C/c2ccc3cccc(NS(=O)(=O)c4ccc(C(F)(F)F)cc4)c3n2)C1 (mixture of isomers) [ZDR123, tert-Butyl (E/Z)-3-(2-((8-((4-(trifluoromethyl)phenyl)sulfonamido)quinolin-2-yl)methylene)hydrazine-1-carbonyl)piperidine-1-carboxylate]
MIC [1, 4]: > 256 µg/mL
MIC [1, 5]: > 256 µg/mL
MIC ([2]; ATCC19436, No Zinc): > 256 µg/mL
MIC ([2]; ATCC19436, Zinc (50 μM)): 0.125 µg/mL
MIC ([3]; ATCC6538, No Zinc): > 256 µg/mL
MIC ([3]; ATCC6538, Zinc (50 μM)): > 256 µg/mL

SMILES: CN(C)Cc1ccc2cccc(NS(=O)(=O)c3ccc(C(F)(F)F)cc3)c2n1 [ZDR022, N-(2-((Dimethylamino)methyl)quinolin-8-yl)-4-(trifluoromethyl)-benzenesulfonamide]
MIC [1, 4]: > 256 µg/mL
MIC [1, 5]: > 256 µg/mL
MIC ([2]; ATCC19436, No Zinc): 64 µg/mL (≈ 156 µM)
MIC ([2]; ATCC19436, Zinc (50 μM)): 0.125 µg/mL (≈ 0.305 µM)
MIC ([3]; ATCC6538, No Zinc): 16 µg/mL (≈ 39.1 µM)
MIC ([3]; ATCC6538, Zinc (50 μM)): 8 µg/mL (≈ 19.5 µM)

SMILES: CC(C)NCc1ccc2cccc(NS(=O)(=O)c3ccc(C(F)(F)F)cc3)c2n1 [ZDR027, N-(2-((Isopropylamino)methyl)quinolin-8-yl)-4-(trifluoromethyl)-benzenesulfonamide]
MIC [1, 4]: > 256 µg/mL
MIC [1, 5]: > 256 µg/mL
MIC ([2]; ATCC19436, No Zinc): 64 µg/mL (≈ 151 µM)
MIC ([2]; ATCC19436, Zinc (50 μM)): 0.125 µg/mL (≈ 0.295 µM)
MIC ([3]; ATCC6538, No Zinc): 16 µg/mL (≈ 37.8 µM)
MIC ([3]; ATCC6538, Zinc (50 μM)): 16 µg/mL (≈ 37.8 µM)

SMILES: CCN(CC)Cc1ccc2cccc(NS(=O)(=O)c3ccc(C(F)(F)F)cc3)c2n1 [ZDR028, N-(2-((Diethylamino)methyl)quinolin-8-yl)-4-(trifluoromethyl)-benzenesulfonamide]
MIC [1, 4]: > 256 µg/mL
MIC [1, 5]: > 256 µg/mL
MIC ([2]; ATCC19436, No Zinc): 128 µg/mL (≈ 293 µM)
MIC ([2]; ATCC19436, Zinc (50 μM)): 0.125 µg/mL (≈ 0.286 µM)
MIC ([3]; ATCC6538, No Zinc): 256 µg/mL (≈ 585 µM)
MIC ([3]; ATCC6538, Zinc (50 μM)): > 256 µg/mL

SMILES: CN(C)CCNCc1ccc2cccc(NS(=O)(=O)c3ccc(C(F)(F)F)cc3)c2n1 [ZDR030, N-(2-(((2-(Dimethylamino)ethyl)amino)methyl)quinolin-8-yl)-4-(trifluoromethyl)benzenesulfonamide]
MIC [1, 4]: 128 µg/mL (≈ 283 µM)
MIC [1, 5]: ≥ 256 µg/mL
MIC ([2]; ATCC19436, No Zinc): 16 µg/mL (≈ 35.4 µM)
MIC ([2]; ATCC19436, Zinc (50 μM)): 1 µg/mL (≈ 2.21 µM)
MIC ([3]; ATCC6538, No Zinc): 16 µg/mL (≈ 35.4 µM)
MIC ([3]; ATCC6538, Zinc (50 μM)): 16 µg/mL (≈ 35.4 µM)

SMILES: CN(CCN(C)Cc1ccc2cccc(NS(=O)(=O)c3ccc(C(F)(F)F)cc3)c2n1)Cc1ccc2cccc(NS(=O)(=O)c3ccc(C(F)(F)F)cc3)c2n1 [ZDR036, N,N′-(((Ethane-1,2-diylbis(methylazanediyl))bis(methylene))-bis(quinoline-2,8-diyl))bis(4-(trifluoromethyl)benzenesulfonamide)]
MIC [1, 4]: > 256 µg/mL
MIC [1, 5]: > 256 µg/mL
MIC ([2]; ATCC19436, No Zinc): > 256 µg/mL
MIC ([2]; ATCC19436, Zinc (50 μM)): > 256 µg/mL
MIC ([3]; ATCC6538, No Zinc): > 256 µg/mL
MIC ([3]; ATCC6538, Zinc (50 μM)): > 256 µg/mL

SMILES: CC(C)(C)OC(=O)CNCc1ccc2cccc(NS(=O)(=O)c3ccc(C(F)(F)F)cc3)c2n1 [ZDR041, N-(2-(((tert-Butoxycarbonylmethyl)amino)methyl)quinolin-8-yl)-4-(trifluoromethyl)benzenesulfonamide]
MIC [1, 4]: > 256 µg/mL
MIC [1, 5]: > 256 µg/mL
MIC ([2]; ATCC19436, No Zinc): > 256 µg/mL
MIC ([2]; ATCC19436, Zinc (50 μM)): 0.5 µg/mL (≈ 1.01 µM)
MIC ([3]; ATCC6538, No Zinc): 64 µg/mL (≈ 129 µM)
MIC ([3]; ATCC6538, Zinc (50 μM)): > 256 µg/mL

The remaining lines, values ahead:

MIC [1, 4]: > 256 µg/mL
MIC [1, 5]: > 256 µg/mL
MIC ([2]; ATCC19436, No Zinc): > 256 µg/mL
MIC ([2]; ATCC19436, Zinc (50 μM)): 0.125 µg/mL (≈ 0.341 µM)
MIC ([3]; ATCC6538, No Zinc): > 256 µg/mL
MIC ([3]; ATCC6538, Zinc (50 μM)): > 256 µg/mL
SMILES: Cc1ccc2cccc(NS(=O)(=O)c3ccc(C(F)(F)F)cc3)c2n1 [ZDR018, N-(2-Methylquinolin-8-yl)-4-(trifluoromethyl)benzenesulfonamide]

MIC [1, 4]: 128 µg/mL (≈ 337 µM)
MIC [1, 5]: 128 µg/mL (≈ 337 µM)
MIC ([2]; ATCC19436, No Zinc): 16 µg/mL (≈ 42.1 µM)
MIC ([2]; ATCC19436, Zinc (50 μM)): 1 µg/mL (≈ 2.63 µM)
MIC ([3]; ATCC6538, No Zinc): 8 µg/mL (≈ 21 µM)
MIC ([3]; ATCC6538, Zinc (50 μM)): 8 µg/mL (≈ 21 µM)
SMILES: O=Cc1ccc2cccc(NS(=O)(=O)c3ccc(C(F)(F)F)cc3)c2n1 [ZDR019, N-(2-Formylquinolin-8-yl)-4-(trifluoromethyl)benzenesulfonamide]

MIC [1, 4]: 256 µg/mL (≈ 647 µM)
MIC [1, 5]: ≥ 256 µg/mL
MIC ([2]; ATCC19436, No Zinc): 64 µg/mL (≈ 162 µM)
MIC ([2]; ATCC19436, Zinc (50 μM)): 0.25 µg/mL (≈ 0.632 µM)
MIC ([3]; ATCC6538, No Zinc): 16 µg/mL (≈ 40.5 µM)
MIC ([3]; ATCC6538, Zinc (50 μM)): 8 µg/mL (≈ 20.2 µM)
SMILES: CNCc1ccc2cccc(NS(=O)(=O)c3ccc(C(F)(F)F)cc3)c2n1 [ZDR024, N-(2-((Methylamino)methyl)quinolin-8-yl)-4-(trifluoromethyl)-benzenesulfonamide]

MIC [1, 4]: 256 µg/mL (≈ 625 µM)
MIC [1, 5]: ≥ 256 µg/mL
MIC ([2]; ATCC19436, No Zinc): 64 µg/mL (≈ 156 µM)
MIC ([2]; ATCC19436, Zinc (50 μM)): 0.125 µg/mL (≈ 0.305 µM)
MIC ([3]; ATCC6538, No Zinc): 32 µg/mL (≈ 78.2 µM)
MIC ([3]; ATCC6538, Zinc (50 μM)): > 256 µg/mL
SMILES: CCNCc1ccc2cccc(NS(=O)(=O)c3ccc(C(F)(F)F)cc3)c2n1 [ZDR025, N-(2-((Ethylamino)methyl)quinolin-8-yl)-4-(trifluoromethyl)-benzenesulfonamide]

MIC [1, 4]: > 256 µg/mL
MIC [1, 5]: > 256 µg/mL
MIC ([2]; ATCC19436, No Zinc): 64 µg/mL (≈ 151 µM)
MIC ([2]; ATCC19436, Zinc (50 μM)): 0.125 µg/mL (≈ 0.295 µM)
MIC ([3]; ATCC6538, No Zinc): 32 µg/mL (≈ 75.6 µM)
MIC ([3]; ATCC6538, Zinc (50 μM)): > 256 µg/mL
SMILES: CCCNCc1ccc2cccc(NS(=O)(=O)c3ccc(C(F)(F)F)cc3)c2n1 [ZDR026, N-(2-((Propylamino)methyl)quinolin-8-yl)-4-(trifluoromethyl)-benzenesulfonamide]

MIC [1, 4]: > 256 µg/mL
MIC [1, 5]: > 256 µg/mL
MIC ([2]; ATCC19436, No Zinc): > 256 µg/mL
MIC ([2]; ATCC19436, Zinc (50 μM)): 0.25 µg/mL (≈ 0.554 µM)
MIC ([3]; ATCC6538, No Zinc): > 256 µg/mL
MIC ([3]; ATCC6538, Zinc (50 μM)): > 256 µg/mL
SMILES: O=S(=O)(Nc1cccc2ccc(CN3CCOCC3)nc12)c1ccc(C(F)(F)F)cc1 [ZDR029, N-(2-((Morpholin-4-yl)methyl)quinolin-8-yl)-4-(trifluoromethyl)-benzenesulfonamide]

MIC [1, 4]: ≥ 256 µg/mL
MIC [1, 5]: > 256 µg/mL
MIC ([2]; ATCC19436, No Zinc): 16 µg/mL (≈ 37.6 µM)
MIC ([2]; ATCC19436, Zinc (50 μM)): 0.5 µg/mL (≈ 1.18 µM)
MIC ([3]; ATCC6538, No Zinc): 32 µg/mL (≈ 75.2 µM)
MIC ([3]; ATCC6538, Zinc (50 μM)): 32 µg/mL (≈ 75.2 µM)
SMILES: O=S(=O)(Nc1cccc2ccc(CNCCO)nc12)c1ccc(C(F)(F)F)cc1 [ZDR031, N-(2-(((2-Hydroxyethyl)amino)methyl)quinolin-8-yl)-4-(trifluoromethyl)benzenesulfonamide]

MIC [1, 4]: > 256 µg/mL
MIC [1, 5]: > 256 µg/mL
MIC ([2]; ATCC19436, No Zinc): > 256 µg/mL
MIC ([2]; ATCC19436, Zinc (50 μM)): 0.125 µg/mL (≈ 0.278 µM)
MIC ([3]; ATCC6538, No Zinc): > 256 µg/mL
MIC ([3]; ATCC6538, Zinc (50 μM)): > 256 µg/mL
SMILES: O=S(=O)(Nc1cccc2ccc(CN3CCCCC3)nc12)c1ccc(C(F)(F)F)cc1 [ZDR033, N-(2-((Piperidin-1-yl)methyl)quinolin-8-yl)-4-(trifluoromethyl)-benzenesulfonamide]

MIC [1, 4]: 32 µg/mL (≈ 67.7 µM)
MIC [1, 5]: > 256 µg/mL
MIC ([2]; ATCC19436, No Zinc): 2 µg/mL (≈ 4.23 µM)
MIC ([2]; ATCC19436, Zinc (50 μM)): 1 µg/mL (≈ 2.12 µM)
MIC ([3]; ATCC6538, No Zinc): 4 µg/mL (≈ 8.47 µM)
MIC ([3]; ATCC6538, Zinc (50 μM)): 4 µg/mL (≈ 8.47 µM)
SMILES: O=S(=O)(Nc1cccc2ccc(CNCc3ccccn3)nc12)c1ccc(C(F)(F)F)cc1 [ZDR035, N-(2-((((Pyridin-2-yl)methyl)amino)methyl)quinolin-8-yl)-4-(trifluoromethyl)benzenesulfonamide]

MIC [1, 4]: > 256 µg/mL
MIC [1, 5]: > 256 µg/mL
MIC ([2]; ATCC19436, No Zinc): > 256 µg/mL
MIC ([2]; ATCC19436, Zinc (50 μM)): 2 µg/mL (≈ 2.63 µM)
MIC ([3]; ATCC6538, No Zinc): > 256 µg/mL
MIC ([3]; ATCC6538, Zinc (50 μM)): > 256 µg/mL
SMILES: CN(Cc1ccc2cccc(NS(=O)(=O)c3ccc(C(F)(F)F)cc3)c2n1)Cc1ccc2cccc(NS(=O)(=O)c3ccc(C(F)(F)F)cc3)c2n1 [ZDR037, N,N′-(((Methylazanediyl)bis(methylene))bis(quinoline-2,8-diyl))bis(4-(trifluoromethyl)benzenesulfonamide)]
